According to PMC3884839, “Pharmacokinetics and pharmacodynamics utilizing unbound target tissue exposure as part of a disposition-based rationale for lead optimization of benzoxaboroles in the treatment of Stage 2 Human African Trypanosomiasis” (Parasitology, 2013):

Columns and labels:
[1] = test system: MDCKII-hMDR1 monolayer (Pgp efflux transporter); assay: MDCKII-hMDR1 monolayer permeability and Pgp-mediated efflux; type: in vitro ADME
Experimental: The propensity of test compounds to cross the BBB was examined using an in vitro MDCKII-hMDR1 monolayer assay (Polli et al. [2001]). In summary, MDCKII-hMDR1 cells (Netherlands Cancer Institute, Amsterdam, the Netherlands) were seeded at a density of 3×10^5 cells per well onto microporous polycarbonate membranes in 12 well Costar Transwell plates (Corning Inc., Lowell, MA). The cells were incubated for 3 days during which time they formed confluent monolayers. Trans-epithelial resistance (TEER) was measured for each insert to ensure the integrity of the monolayer (acceptable TEER >160 Ω cm^2). The permeability and susceptibility for Pgp-mediated efflux was evaluated by adding each compound at a concentration of 3 μM, in the presence or absence of 2 μM GF120918 (a potent Pgp inhibitor), to the apical compartment. Competency of the Pgp efflux transporter was confirmed by assay of propranolol (non-substrate) and amprenavir (substrate). Cell monolayers were incubated in triplicate with shaking (160 rpm) at 37 °C in a 5% CO2-enriched humidified atmosphere for 1 h. Samples were removed from the apical and basolateral compartments after incubation and assayed for test compound concentrations by LC-MSMS. Values for mass balance, PappA−B, PappA−B+GF918, and absorption quotient (AQ) were calculated for each compound (Troutman and Thakker, [2003]; Thiel-Demby et al. [2004]). Acceptance criterion for mass balance was 70–120%.

[2] = Unbound brain exposure (AUC0-24) in uninfected mice after once daily oral SCYX-7158; type: in vivo, mouse; conditions: 12·5 mg kg^−1 once daily
Experimental: The CNS disposition and pharmacokinetics of the benzoxaboroles were evaluated in infected and uninfected mice following oral administration. In vivo phases of single-dose rodent PK studies were performed at Vivisource (Waltham, MA) following Institutional Animal Care and Use Committee (IACUC) review in an Association for Assessment and Accreditation of Laboratory Animal Care International (AAALAC)-approved facility. Studies in Trypanosoma brucei brucei (TREU 667 strain) infected mice, or uninfected satellite animals, were performed after IACUC review at Pace University (NewYork, NY).
Male CD-1 or female Swiss Webster mice (approximately 25 g) were administered test compounds by oral gavage either once (QD) or twice per day (Q12 h) with doses ranging between 6 and 100 mg kg^−1 as described below. All compounds were formulated as an in situ sodium salt in 2% (v/v) ethanol, 5% (m/v) dextrose, to yield typically clear colourless solutions that were administered at 4 mL kg^−1. Blood samples for pharmacokinetic studies were collected into polypropylene tubes containing K2EDTA anticoagulant and stored on wet ice until centrifuged and processed to plasma. Plasma was stored at −80 °C. Blood samples from mice were collected via cardiac puncture under terminal anaesthesia. Rodents were euthanized in a CO2 chamber before collection of terminal blood or tissue samples. Brain tissues were blotted dry and stored at approximately −80 °C.
Pharmacokinetic studies were performed in CD-1 mice to establish AUC0–24 following single and 7×once daily oral doses of 6·25, 12·5, 25, 50 and 100 mg kg^−1 SCYX-7158 (Jacobs et al. [2011]). […] Values for unbound AUC0–24 in brain were calculated using the single and steady-state exposure data (non-parametric super-positioning indicated steady-state was mostly attained on day 2 so day 7 data were employed for days 2–7 rather than modelled data for days 2–6) and compared to the target unbound AUC from the in vitro reversibility studies (Fig. 9).

T. b. brucei (TREU 667) = assay: Murine model of Stage 2 (CNS) HAT; type: in vivo, mouse
Experimental: The efficacy of benzoxaboroles was evaluated in a murine model of Stage 2 (CNS) HAT (Nare et al. [2010]; Jacobs et al. [2011]). In summary, mice (n = 10 per group) were infected by bolus i.p. injection of 1×10^4 T. b. brucei (TREU 667) parasites. A single bolus i.p. dose (10 mg kg^-1) of berenil (Sigma-Aldrich, St. Louis, MO) was administered on day 4 as a positive treatment control for haemolymphatic-stage infection. Infection of the remaining animals proceeded for 21 days to establish a CNS infection before treatment with either a single dose of berenil (as above) or test compounds by the oral route either once or twice daily over 7 days at the doses indicated below. Animals were checked at least weekly for parasitaemia and were immediately removed from cages and euthanized upon recrudescence. Animals were considered cured if they were […] for at least 180 days after treatment.

[3] = 6·25 mg kg^−1 day^−1 oral for 7 days

CC1(C)OB(O)c2cc(NC(=O)c3ccc(F)cc3C(F)(F)F)ccc21 [SCYX-7158]
P-gp classification [1]: Non-substrate
Mass balance A–B+GF918 ([1]; 3 μM, with GF918): 75%
Mass balance A–B ([1]; 3 μM, without GF918): 79%
time unbound concentration in brain tissue exceeded IC50u on each day [2]: 10 h
time unbound concentration in brain tissue exceeded MICu on each day [2]: 4 h
unbound AUC0–24 as percentage of the target MICu AUC [2]: approximately 50%
cure outcome (T. b. brucei (TREU 667); 50 mg kg^−1, single oral dose): No animals were cured
cure rate (T. b. brucei (TREU 667); 50 mg kg^−1 oral, ⩾3 days of dosing): 100%
day of recrudescence of parasitaemia after infection (T. b. brucei (TREU 667); [3]): ~35 days
treatment outcome (T. b. brucei (TREU 667); [3]): cleared of haemolymphatic T. b. brucei but demonstrated recrudescence of parasitaemia
cure rate (T. b. brucei (TREU 667); 12·5 mg kg^−1 oral once daily for 7 days): 80%
cure outcome (T. b. brucei (TREU 667); ⩾25 mg kg^−1 day^−1 oral for 7 days): complete cures
